Results taken from the supplement of paper PMC4862054.

How the values were obtained:
Conditions in all cases: incubation time: 72 h
MDA-MB-436 [1] = experiment: normalised response (% of control), CellTiter-Glo; higher = more viable cells (100 = DMSO, 0 = benzethonium chloride kill control)
How it was run: (§1)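 Every value is a normalised signal taken at one concentration of a dilution series. Compound was placed in 384-well plates at 5 concentrations in 10-fold steps over a compound-specific 10,000-fold range, and 20 µl of breast cancer cell suspension was seeded onto it. After 72 h, CellTox Green fluorescence (485/520 nm) was measured first and CellTiter-Glo luminescence second, following 10 min at room temperature. Each plate was scaled to 0.1 % DMSO (100) and a positive kill control (0).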

CAL-51 [2] = experiment: as above
How it was run: as §1

HCC1937 [3] = experiment: as above
How it was run: as §1

BT-549 [4] = experiment: as above
How it was run: as §1

DU-4475 [5] = experiment: as above
How it was run: as §1

SK-BR-3 = experiment: as above
How it was run: as §1

MDA-MB-468 [6] = experiment: as above
How it was run: as §1

CAL-148 [7] = experiment: as above
How it was run: as §1

MDA-MB-231 [8] = experiment: as above
How it was run: as §1

CAL-120 [9] = experiment: as above
How it was run: as §1

MCF-10A [10] = experiment: as above
How it was run: as §1

CAL-85-1 [11] = experiment: as above
How it was run: as §1

HDQ-P1 [12] = experiment: as above
How it was run: as §1

MDA-MB-453 [13] = experiment: as above
How it was run: as §1

Hs578T [14] = experiment: as above
How it was run: as §1

HCC1143 [15] = experiment: as above
How it was run: as §1

MFM-223 [16] = experiment: as above
How it was run: as §1

HCC1599 [17] = experiment: as above
How it was run: as §1

BT-474 [18] = experiment: as above
How it was run: as §1

MDA-MB-436 [19] = experiment: normalised response (% of control), CellTox Green; higher = less cell death (100 = DMSO, 0 = benzethonium chloride kill control)
How it was run: as §1

CAL-51 [20] = experiment: as above
How it was run: as §1

HCC1937 [21] = experiment: as above
How it was run: as §1

BT-549 [22] = experiment: as above
How it was run: as §1

DU-4475 [23] = experiment: as above
How it was run: as §1

MDA-MB-468 [24] = experiment: as above
How it was run: as §1

CAL-148 [25] = experiment: as above
How it was run: as §1

MDA-MB-231 [26] = experiment: as above
How it was run: as §1

CAL-120 [27] = experiment: as above
How it was run: as §1

MCF-10A [28] = experiment: as above
How it was run: as §1

CAL-85-1 [29] = experiment: as above
How it was run: as §1

HDQ-P1 [30] = experiment: as above
How it was run: as §1

MDA-MB-453 [31] = experiment: as above
How it was run: as §1

Hs578T [32] = experiment: as above
How it was run: as §1

HCC1143 [33] = experiment: as above
How it was run: as §1

MFM-223 [34] = experiment: as above
How it was run: as §1

HCC1599 [35] = experiment: as above
How it was run: as §1

BT-474 [36] = experiment: as above
How it was run: as §1

| SMILES | normalised response (MDA-MB-436 [1]) [%] | normalised response (CAL-51 [2]) [%] | normalised response (HCC1937 [3]) [%] | normalised response (BT-549 [4]) [%] | normalised response (DU-4475 [5]) [%] | normalised response (SK-BR-3) [%] | normalised response (MDA-MB-468 [6]) [%] | normalised response (CAL-148 [7]) [%] | normalised response (MDA-MB-231 [8]) [%] | normalised response (CAL-120 [9]) [%] | normalised response (MCF-10A [10]) [%] | normalised response (CAL-85-1 [11]) [%] | normalised response (HDQ-P1 [12]) [%] | normalised response (MDA-MB-453 [13]) [%] | normalised response (Hs578T [14]) [%] | normalised response (HCC1143 [15]) [%] | normalised response (MFM-223 [16]) [%] | normalised response (HCC1599 [17]) [%] | normalised response (BT-474 [18]) [%] | normalised response (MDA-MB-436 [19]) [%] | normalised response (CAL-51 [20]) [%] | normalised response (HCC1937 [21]) [%] | normalised response (BT-549 [22]) [%] | normalised response (DU-4475 [23]) [%] | normalised response (MDA-MB-468 [24]) [%] | normalised response (CAL-148 [25]) [%] | normalised response (MDA-MB-231 [26]) [%] | normalised response (CAL-120 [27]) [%] | normalised response (MCF-10A [28]) [%] | normalised response (CAL-85-1 [29]) [%] | normalised response (HDQ-P1 [30]) [%] | normalised response (MDA-MB-453 [31]) [%] | normalised response (Hs578T [32]) [%] | normalised response (HCC1143 [33]) [%] | normalised response (MFM-223 [34]) [%] | normalised response (HCC1599 [35]) [%] | normalised response (BT-474 [36]) [%] |
| --- | --- | --- | --- | --- | --- | --- | --- | --- | --- | --- | --- | --- | --- | --- | --- | --- | --- | --- | --- | --- | --- | --- | --- | --- | --- | --- | --- | --- | --- | --- | --- | --- | --- | --- | --- | --- | --- |
| Cc1cc(Nc2cc(CN3CCOCC3)c3nc(C)c(Cc4ccc(Cl)cc4F)n3n2)n[nH]1 [Gandotinib] (1000 nM) | 86.4 | 55 | 96.7 | 77 | 99.9 | 82.4 | 53.1 | 96.7 | 70.7 | 90.4 | 96.6 | 78.1 | 90 | 107 | 86.7 | 88.6 | 69.7 | 124 | 75.8 | 66.1 | 71.4 | 101 | 119 | 102 | 99.5 | 104 | 101 | 97.4 | 90.8 | 78.5 | 105 | 107 | 101 | 97 | 33 | 104 | 104 |
| Nc1cc(C(F)(F)F)c(-c2cc(N3CCOCC3)nc(N3CCOCC3)n2)cn1 [Buparlisib] (1000 nM) | 102 | 90.4 | 89.5 | 89.6 | 82.9 | 84 | 82.9 | 96.2 | 90.3 | 88 | 55.6 | 95.1 | 70.9 | 99 | 91.1 | 94 | 53.3 | 102 | 99.8 | 90 | 107 | 96.8 | 113 | 95.6 | 165 | 91.7 | 80 | 100 | -21.3 | 106 | 98.7 | 98.9 | 107 | 95.9 | 97.5 | 95.4 | 94.7 |
| CCn1c(-c2nonc2N)nc2cnc(Oc3cccc(NC(=O)c4ccc(OCCN5CCOCC5)cc4)c3)cc21 (1000 nM) | 98.1 | 83.2 | 98.2 | 73.1 | 91.8 | 81.8 | 83 | 86.7 | 80.5 | 72.6 | 75.9 | 102 | 89.9 | 95.6 | 73.5 | 97.9 | 94.2 | 91.3 | 82.6 | 88.7 | 79.7 | 73.9 | 113 | 95.2 | 111 | 83.5 | 79.5 | 99 | 104 | 109 | 107 | 98.7 | 96.5 | 95.2 | 101 | 95 | 101 |
| CNC(=O)c1cccc(-c2ccc3c(N4CCOC[C@@H]4C)nc(N4CCOC[C@@H]4C)nc3n2)c1 [AZD2014] (1000 nM) | 51.6 | 28.8 | 56.7 | 34.5 | 67.9 | 24.3 | 43.3 | 35.1 | 57.8 | 32.5 | 46.5 | 36.9 | 40.2 | 39.8 | 43.6 | 36.9 | 33.7 | 98.5 | 59.5 | 82.4 | 92.3 | 70.8 | 104 | 102 | 132 | 46.1 | 104 | 105 | 104 | 104 | 100 | 102 | 102 | 97.5 | 61.1 | 92.1 | 96.9 |
| COc1cc2c(NC3CCN(C(C)C)CC3)nc(N3CCC(F)(F)CC3)nc2cc1OCCCN1CCCC1 [UNC0642] (1000 nM) | 90.9 | 108 | 94 | 92.4 | 98.7 | 96.4 | 85.9 | 89.1 | 95.4 | 89 | 84.6 | 93.2 | 99.7 | 94.6 | 100 | 91.2 | 91.2 | 93.1 | 109 | 61.8 | 98 | 108 | 86.2 | 96.4 | 146 | 94.5 | 92.8 | 96.9 | 90.6 | 97.7 | 104 | 102 | 67.8 | 102 | 88.9 | 97.6 | 97.4 |
| CCOC(=O)CCNc1cc(N2CCc3ccccc3CC2)nc(-c2ccccn2)n1 [GSK-J4] (10000 nM) | 22.8 | 12.2 | 49.4 | 20.8 | 30.6 | 57.2 | 12.7 | 10.1 | 30.7 | 61.7 | 45.2 | 20.1 | 56.3 | 33.1 | 59.3 | 41.2 | 42.3 | 45.9 | 44.7 | 88.8 | 52.1 | 100 | 81.8 | 79.9 | 40.1 | 53.5 | 57.7 | 87.7 | 89.3 | 2.31 | 49.9 | 88.5 | -14.7 | 68.1 | 76.9 | 80.2 | -18.4 |
